US7807668B2, “Anti-inflammatory compounds” (New Zealand Institute for Crop & Food Research Limited, priority 2004, dated 2010)
Like-named read-outs stand apart in the source and are kept apart here.

Columns and labels:
rat glioma cells = conditions: in vitro; cited from earlier work
human neutrophils = experiment: In vitro respiratory burst (superoxide) assay; format: cell-based; conditions: Neutrophil, concentration required to reduce superoxide production to 50% of control, PMA-triggered respiratory burst, WST-1 dye reduction, compound 30 min before, read-out: Al50 (the source's name)
Protocol: Human neutrophils were isolated from anti-coagulated whole human blood using a Polymorphprep (density 1.13 g/mL, centrifuge 500×g, 40 min). Neutrophils were washed with PBS and plated out at 2×10^6 neutrophils per mL.
Neutrophils were treated with the compound (in DMSO) 30 minutes prior to addition of the detection dye WST-1 (5.5 mM). The respiratory burst was triggered by addition of PMA (200 ng/mL) and dye reduction was monitored (OD 450) for 25 minutes at 37° C.
Respiratory burst activity was calculated as the rate of dye reduction over time and was normalised to untreated cell controls. Anti-inflammatory activity is reported in Table 2 as the concentration required to reduce superoxide production to 50% of control, Al50.

[1] = system: neutrophils in the peritoneal wash; experiment: Mouse gout model (monosodium urate crystal-induced murine peritonitis); format: in vivo; conditions: Neutrophil, oral, immediately prior to MSU crystals i.p.
Protocol: Mouse Peritionitis was induced by intraperitoneal injection of 1 to 5 mg monosodium urate (MSU) crystals, in […] PBS (0.1M, pH 7.4). Animals were treated with the compound(s) (in 250 μL PBS orally) at the doses indicated immediately prior to administration of the MSU crystals. 4 hours post administration, animals were euthanased by CO2 exposure. The peritoneal cavity was washed with 3 mL of PBS containing 3 mM EDTA and 25 U/mL of heparin. The total cells in the lavage fluid were counted and an appropriate volume retained for H and E staining for differential counting (Getting et al. Molecular Determinants of Monosodium Urate Crystal—induced Murine Peritonitis: A role for Endogenous Mast Cells and a Distinct Requirement for Endothelial-derived Selectins. J. Pharmacology and Experimental Therapeutics 1997, 283: 123-30).
Treatment groups were as follows:
Untreated Control (Naive)
PBS Control (PBS oral+MSU crystals)
Compound(s),(oral)+MSU crystals

[2] = system: lymphocytic leukemia cells; conditions: in vitro; cited from earlier work
[3] = superoxide activity of neutrophils in peritoneal wash 4 hours post, read-out: % suppression Superoxide production
[4] = peritoneal wash 4 hours post, total neutrophils per mL, read-out: % suppression Neutrophil infiltration

| Compound | cytotoxic to rat glioma cells (rat glioma cells) | IC50 (human neutrophils) [µM] | inhibition in vivo at 25.6 µmol/kg [1, 3] [%] | inhibition in vivo at 25.6 µmol/kg [1, 4] [%] | cytotoxic to lymphocytic leukemia cells [2] |
| --- | --- | --- | --- | --- | --- |
| CC(C)=CCCc1ccc2c(c1)C(=O)C1=C(NCCS1(=O)=O)C2=O [(A)] | cytotoxic | – | – | – | – |
| CC(C)=CCCc1ccc2c(c1)C(=O)C1=C(C2=O)S(=O)(=O)CCN1 [(B)] | cytotoxic | – | – | – | – |
| O=C(O)c1ccc2c(n1)C(=O)C1=C(C2=O)S(=O)(=O)CCN1 [Compound 1, 2H-Pyrido[2,3-g][1,4]benzothiazine-5,10-dione, 3,4-dihydr-1,1-dioxo-7-carboxylic acid] | – | 0.14 | – | – | – |
| O=C(O)c1ccc2c(n1)C(=O)C1=C(NC=CS1(=O)=O)C2=O [Compound 2] | – | 0.07 | – | – | – |
| COC(=O)c1ccc2c(n1)C(=O)C1=C(C2=O)S(=O)(=O)CCN1 [Compound 3, Methyl-2H-pyrido[2,3-g][1,4]benzothiazine-5,10-dione, 3,4-dihydro-1,1-dioxo-7-carboxylate] | – | 1.12 | 80 | – | – |
| CCCCCCCCOC(=O)c1ccc2c(n1)C(=O)C1=C(C2=O)S(=O)(=O)CCN1 [Compound 4, Octyl-2H-pyrido[2,3-g][1,4]benzothiazine-5,10-dione, 3,4-dihydro-1,1-dioxo-7-carboxylate] | – | 9.04 | – | – | – |
| N#Cc1ccc2c(n1)C(=O)C1=C(C2=O)S(=O)(=O)CCN1 [Compound 5, 2H-Pyrido[2,3-g][1,4]benzothiazine-5,10-dione, 3,4-dihydro-1,1-dioxo-7-carbonitrile] | – | 1.57 | 50 | 25 | – |
| N#Cc1ccc2c(O)c3c(c(O)c2n1)NCCS3(=O)=O [Compound 6, 2H-Pyrido[2,3-g][1,4]benzothiazine-5,10-dihydroxy, 3,4-dihydro-1,1-dioxo-7-carbonitrile] | – | 4.85 | – | – | – |
| Cc1ccc2c(n1)C(=O)C1=C(C2=O)S(=O)(=O)CCN1 [Compound 9, 2H-Pyrido[2,3-g][1,4]benzothiazine-5,10-dione, 3,4-dihydro-7-methyl-1,1-dioxide] | – | > 90 | 80 | 50 | – |
| Cc1ccc2c(n1)C(=O)C1=C(NCCS1(=O)=O)C2=O [Compound 10, 1H-Pyrido[3,2-g][1,4]benzothiazine-5,10-dione, 2,3-dihydro-7-methyl-1,1-dioxide] | – | > 90 | 40 | 30 | – |
| O=C1C2=C(NCCS2(=O)=O)C(=O)c2ncccc21 [Compound 11, 2H-Pyrido[2,3-g][1,4]benzothiazine-5,10-dione, 3,4-dihydro-1,1-dioxide] | – | 30 | 20 | 30 | – |
| CN(C)C(=O)c1ccc2c(n1)C(=O)C1=C(C2=O)S(=O)(=O)CCN1 [Compound 12, 2H-Pyrido[2,3-g][1,4]benzothiazine-5,10-dione, 3,4-dihydro-N,N-dimethyl-1,1-dioxo-7-carboxamide] | – | 79 | 85 | 65 | – |
| CN(C)C(=O)c1ccc2c(n1)C(=O)C1=C(NCCS1(=O)=O)C2=O [Compound 13, 1H-Pyrido[3,2-g][1,4]benzothiazine-5,10-dione, 2,3-dihydro-N,N-dimethyl-1,1-dioxo-7-carboxamide] | – | 149 | – | – | – |
| O=C(/C=C/c1ccc2c(n1)C(=O)C1=C(C2=O)S(=O)(=O)CCN1)c1ccccc1 [Compound 16, (E)-1-phenyl-3-(2H-Pyrido[2,3-g][1,4]benzothiazine-5,10-dione, 3,4-dihydro-1,1-dioxide)prop-2-en-1-one.] | – | 7.76 | 65 | 30 | – |
| O=C1C2=C(NCCS2(=O)=O)C(=O)c2nc(C3OCCO3)ccc21 [Compound 17] | – | > 74 | – | – | – |
| O=Cc1ccc2c(n1)C(=O)C1=C(C2=O)S(=O)(=O)CCN1 [Compound 18, 2H-Pyrido[2,3-g][1,4]benzothiazine-5,10-dione, 3,4-dihydro1,1-dioxo-7-carbaldehyde] | – | 4.17 | 40 | – | – |
| COC(O)c1ccc2c(n1)C(=O)C1=C(C2=O)S(=O)(=O)CCN1 (stereo not drawn) [Compound 19] | – | 13 | – | – | – |
| O=C(O)c1ccc2c(n1)C(=O)C1=C(C2=O)S(=O)(=O)C=CN1 [Compound 20, 4H-Pyrido[2,3-g][1,4]benzothiazine-5,10-dione-1,1-dioxo-7-carboxylic acid] | – | 0.09 | – | – | – |
| Cc1ccc2c(n1)C(=O)C1=C(C2=O)S(=O)(=O)C=CN1 [Compound 21, 4H-Pyrido[2,3-g][1,4]benzothiazine-5,10-dione-7-methyl-1,1-dioxide] | – | 8.93 | 40 | 30 | – |
| O=C1C2=C(C(=O)c3ccccc31)S(=O)(=O)CCN2 [Compound 22, 2H-Naphtho[2,3-b]-1,4-thiazine-5,10-dione, 3,4-dihydro-1,1-dioxide] | – | > 106 | 80 | 25 | cytotoxic |
